Numbers after ± are expanded uncertainties.
Experiment: xn = mol fraction of the nth substance listed
Conditions: 101 kPa, Liquid; for viscosity: Capillary tube (Ostwald / Ubbelohde) method; for mass density: Pycnometric method

OCc1ccccc1 [benzenemethanol] + CCC(C)=O
Conditions	mass density, 303.15 K [kg/m3]	mass density, 308.15 K [kg/m3]	mass density, 313.15 K [kg/m3]	mass density, 318.15 K [kg/m3]	mass density, 323.15 K [kg/m3]	viscosity, 303.15 K [mPa·s]	viscosity, 308.15 K [mPa·s]	viscosity, 313.15 K [mPa·s]	viscosity, 318.15 K [mPa·s]	viscosity, 323.15 K [mPa·s]
x1 = 0.1003	825.4 ± 0.9	820.4 ± 0.9	815.4 ± 0.9	810.4 ± 0.9	805.3 ± 0.9	0.446 ± 0.006	0.424 ± 0.006	0.403 ± 0.005	0.385 ± 0.005	0.368 ± 0.005
x1 = 0.2	854.7 ± 0.9	849.9 ± 0.9	845.1 ± 0.9	840.3 ± 0.9	835.5 ± 0.9	0.554 ± 0.007	0.524 ± 0.007	0.497 ± 0.006	0.472 ± 0.006	0.451 ± 0.006
x1 = 0.301	882.5 ± 0.9	877.8 ± 0.9	873 ± 0.9	868.3 ± 0.9	863.6 ± 0.9	0.697 ± 0.009	0.655 ± 0.008	0.616 ± 0.008	0.582 ± 0.007	0.551 ± 0.007
x1 = 0.3991	907.5 ± 0.9	903 ± 0.9	898.4 ± 0.9	893.9 ± 0.9	889.3 ± 0.9	0.876 ± 0.011	0.818 ± 0.01	0.765 ± 0.01	0.718 ± 0.009	0.676 ± 0.009
x1 = 0.5001	932.6 ± 0.9	928.2 ± 0.9	923.8 ± 0.9	919.4 ± 0.9	915 ± 0.9	1.131 ± 0.014	1.046 ± 0.013	0.97 ± 0.012	0.904 ± 0.011	0.845 ± 0.011
x1 = 0.6	956.3 ± 0.9	952 ± 0.9	947.8 ± 0.9	943.6 ± 0.9	939.3 ± 0.9	1.476 ± 0.019	1.351 ± 0.017	1.242 ± 0.016	1.146 ± 0.014	1.063 ± 0.013
x1 = 0.7008	978.2 ± 0.9	974.1 ± 0.9	969.9 ± 0.9	965.8 ± 0.9	961.7 ± 0.9	1.947 ± 0.025	1.761 ± 0.022	1.599 ± 0.02	1.461 ± 0.018	1.341 ± 0.017
x1 = 0.8001	998.5 ± 0.9	994.6 ± 0.9	990.5 ± 0.9	985.6 ± 0.9	982.7 ± 0.9	2.586 ± 0.033	2.307 ± 0.029	2.063 ± 0.026	1.866 ± 0.023	1.694 ± 0.021
x1 = 0.8997	1018.1 ± 0.9	1014.3 ± 0.9	1010.4 ± 0.9	1006.5 ± 0.9	1002.7 ± 0.9	3.452 ± 0.044	3.033 ± 0.038	2.682 ± 0.034	2.391 ± 0.03	2.144 ± 0.027
x1 = 1	1037.6 ± 0.9	1033.8 ± 0.9	1030.1 ± 0.9	1026.3 ± 0.9	1022.5 ± 0.9	4.689 ± 0.059	4.058 ± 0.051	3.531 ± 0.044	3.103 ± 0.039	2.747 ± 0.035

— the NIST ThermoML archive (doi:10.1021/je200150r)
